This is an account of results in patent US11672814B2, “NGNA compositions and methods of use” (priority 2008, dated 2023).

This assay has as its system influenza A (H1N1). The experiment in a line: Influenza virus mouse model, feed supplemented with N5G. It counts as in vivo. The text has this: The overall purpose of the study was to determine whether the N5G nutritional supplement has the ability to have significant impact on clinical disease outcomes caused by influenza virus in a mouse animal model.
The experimental design included adherence to a strict feeding schedule, which included 30 days of acclimation of mice to a defined base feed (AIN-93M) provided by Purina TestDiet, Inc. Control animals remained continuously fed with the defined base feed, while the experimental mouse group was fed with the base feed supplemented with 0.35% of N5G.
Experimental and control mouse groups were infected intranasally with 107.5 TCID50 influenza A (H1N1) with each mouse receiving 5iL of viral inoculum per nostril. The experimental parameters followed during the study were: 1) mouse weight changes; 2) food intake changes; 3) clinical signs of disease; 4) lung tissue pathology; 5) lung consolidation scores; 6) changes in viral loads.
Overall, the experimental design was executed without any major obstacles. As expected, there was minor occasional wasting of feed in some cages (mice chewed on feed which was dropped on the bottom of the cage). In every instance noted on daily observations, the residual feed was weighed, but it was excluded in any statistical calculations as well as in the calculation of baseline feed intake.
As expected, all influenza infected mice developed clinical signs of disease starting 2 days post infection. Clinical signs included: 1) ruffled fur, 2) inactivity, 3) hunching, 4) death, 5) weight loss, and 6) loss of appetite.
Clinical signs 1-4 were scored by two independent observers using a scale of 0-5. The cumulative scores were plotted and statistically analyzed. Statistical analyses were performed using SAS v.9.1.3. An analysis of variance (ANOVA) of a repeated measures design was calculated in a split-plot arrangement of treatments, with the treatment group on the main plot, and the subplot including day and treatment by day interactions. Interaction of pairwise comparisons of least square means was performed with a pairwise t-test with pre-planned comparisons. This statistical methodology was used for all comparisons in the study.
D. The most important aspect of influenza infections is the resultant lung immunopathology. Typically, viral replication as well as infiltration of lymphocytes causes substantial damage to lung tissues. In fact, it is believed that infiltration of lymphocytes and their negative effects on lungs tissues is the most important parameter of influenza-related morbidity and mortality in humans. Consequently, particular care was taken to examine the tissues of mice for signs of histopathological changes. The following evaluation criteria were utilized to score these changes: 1) Lung consolidation scores (LCS); 2) Histopathological scores (HS). LCS were rated as follows: grade 1: no plum coloration; grade 2: minimum plum coloration; grade 3: medium plum coloration; grade 4: maximum plum coloration. HS were rated as follows: Grade 0: no overt histological change; grade 1+: only bronchial/bronchiolar and/or peri-bronchial/bronchiolar/vascular changes; grade 2+: 1-10% pulmonary parenchyma affected; grade 3+: 11-30% pulmonary parenchyma affected; grade 4:+: 31-50% pulmonary parenchyma affected; grade 5+: greater than 50% pulmonary parenchyma affected.

As for `O=C(CO)N[C@H]1[C@H]([C@H](O)[C@H](O)CO)O[C@](O)(C(=O)O)C[C@@H]1O` [NGNA, n-glycolylneuraminic acid], the “Viral titers from lung homogenates” value (mice, 2 days post infection, treated and untreated) is “less than 100 plaque forming units (PFU) per 250iL of homogenate”. In addition, under “mice, base feed with 0.35% N5G, days 6-8 post infection, FIG. 3”, the “Clinical signs 1-4 scores (ruffled fur, inactivity, hunching, death), treated versus untreated” value is “Statistically significant differences”. Also, the “Histopathological scores, treated versus untreated” value (mice, day 6 post infection, grades 0 to 5+, FIG. 7) is “statistically significant difference”. The “Viral titers from lung homogenates, treated versus untreated” value (mice, days 2, 4, 6, 8 and 21 post infection, one mouse per group per time point) is “No significant differences”. In addition, the “% change in mouse weights, untreated versus treated” value (mice, days 3-9 post infection, FIG. 5) is “highly significant reduction in body weights was observed in the control mouse group”. The “% daily feed intake” value (mice, days 5-6 post infection, FIG. 4, group with the loss not stated) is on record as “statistically significant loss of appetite”. Where the note is “mice, grades 1-4, FIG. 6”, the “Lung consolidation scores, treated versus untreated” value is ““trend” toward a healthier status of treated versus untreated mice. However, there results were not statistically significant”. In addition, the “Effect on ameliorating clinical symptoms and adverse pathological implication of influenza infection” value (mouse experimental model, overall conclusion) is “significant effect”.
